Consider one compound from BindingDB's records for doi:10.1016/j.bmc.2010.05.071 (University of Innsbruck and Center For Molecular …, 2010).

The IC50 is the concentration that inhibits the measured activity by half. The low end stands for higher potency, the high end for lower potency.

In this experiment the target is Acetylcholinesterase (Electrophorus electricus, UniProt O42275). Kind of experiment: Inhibition of electric eel AChE by Ellman's method. (In general: DTNB colorimetry detects thiols as they appear.)
Chain of Acetylcholinesterase (O42275 whole entry): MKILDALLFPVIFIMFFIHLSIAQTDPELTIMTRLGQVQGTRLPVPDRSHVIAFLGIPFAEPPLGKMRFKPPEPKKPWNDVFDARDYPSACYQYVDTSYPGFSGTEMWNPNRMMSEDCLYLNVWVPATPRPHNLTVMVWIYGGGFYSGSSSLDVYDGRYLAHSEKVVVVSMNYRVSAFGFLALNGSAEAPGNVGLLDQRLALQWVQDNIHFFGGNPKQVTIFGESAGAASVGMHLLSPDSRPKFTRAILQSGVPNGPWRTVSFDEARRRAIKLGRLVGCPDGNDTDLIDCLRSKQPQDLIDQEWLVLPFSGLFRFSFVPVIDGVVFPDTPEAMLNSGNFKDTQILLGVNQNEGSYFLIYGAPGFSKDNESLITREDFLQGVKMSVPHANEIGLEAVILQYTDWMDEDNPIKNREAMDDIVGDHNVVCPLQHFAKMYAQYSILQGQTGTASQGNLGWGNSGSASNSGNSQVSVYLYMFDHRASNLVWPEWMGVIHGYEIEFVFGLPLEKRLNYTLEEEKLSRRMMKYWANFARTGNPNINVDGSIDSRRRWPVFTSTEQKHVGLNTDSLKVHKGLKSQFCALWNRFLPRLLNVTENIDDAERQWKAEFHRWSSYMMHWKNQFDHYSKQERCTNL

For `O=CN1CC[C@]23CC(=O)CC[C@H]2[C@H]1Cc1c(O)ccc(O)c13`, it took 12.7 µM to reach half-maximal inhibition (IC50).
